Assay results as given in patent US12421206B2, “Aryl-n-aryl derivatives for treating a RNA virus infection” (ABIVAX, priority 2018, dated 2025).

Key:
[1] = test system: Chikungunya Virus (CHIKV) strain LR2006-OPY1 with GFP modification (CHIK 5'LR); assay: microbe, parasite or virus in culture; format: cell-based; settings: HEK-293T, infected HEK293T cells; for inhibition at 1 µM: compounds at 1 μM, MOI 0.1, 22 h, mean of 2 experiments, values above 100 lowered to 100, read-out: % CHIKV Inhibition Mean (n = 2); for IC50: second round of experiments, range stated for listed compounds, read-out: IC50 (CHIKV inhibition)
Method: The ability of the compounds to inhibit viral replication was assessed with an experiment in which infected cells were treated by compounds of formula (Ie) at 1 μM. As a positive control for inhibition of Chikungunya, Ribavirin was used. Toxicity of the compounds was assessed in parallel.
Human embryonic kidney cells 293T (HEK293T, CRL-11268) were maintained in Dulbecco's modified Eagle's Medium (DMEM, 31966-021, Thermo Fisher Scientific) supplemented with 10% of fetal bovine serum (FBS), penicillin and streptomycin. After removal of the medium, cells were washed with Ca^2+ and Mg^2+-free salt solution to remove all traces of serum. After aspiration of wash solution, cells were dissociated with 0.25% Trypsin-EDTA solution and incubated 30 s at least in 37° C. incubator. Concentration of cell suspension was determined by an automatic cell counter (EVE, NanoEntek) and, if needed, adjusted to 0.33×10^6 cells/mL with DMEM medium supplemented with 10% FBS.
100 μL of the cell suspension were dispatched in a ViewPlate-96 Black (6005182, PerkinElmer) and in a transparent 96-well cell culture plate (655180, Greiner bio-one). After an incubation for 24 h at 37° C. under 5% of CO2, compounds were added at the proper concentration.
An intermediate dilution was prepared with DMSO (D8418, Sigma) at 2 mM in a 96-well V-bottom microplate from the stock solution:
Mix 1 μL of the 50 mM stock library in 25 μL of DMSO.
Mix 2 μL of the 25 mM stock library in 25 μL of DMSO.
An intermediate dilution was prepared with DMSO (D8418, Sigma) at 25 mM in a 96-well V-bottom microplate from the stock solution:
Mix 2 μL of the 50 mM stock library in 2 μL of DMSO.
Perform serial dilution in 2 μL of DMSO 13 times to reach 0.0015 mM. Proceed as follows in table III:
For both screen and determination of IC50, 1 μL of each solution was added in a 1 mL Masterblock 96 wells (Greiner bio-one, 780261) containing 1 mL of DMEM medium. As a positive control, 5 μL of a 80 mM Ribavirin solution (R9644, Sigma) is added to 1 mL of DMEM. On the other hand, DMSO is used as a negative control.
[…]. Vector Borne Zoonotic Dis. 2006; 6(4)). This modified virus was used to infect cells at MOI 0.1. […].
Medium was removed after 22 h at 37° C. under 5% of CO2 and cells were washed as described above. 60 μL of RIPA buffer (50 mM Tris-HCl pH8, 100 mM NaCl, 1 mM MgCl2, 1% Triton X-100) was added to cells and incubated for at least 20 min before reading fluorescence signal. Pierce 660 nm Protein Assay Reagent (22660, Thermo scientific) was used to normalize fluorescence signal by protein quantity.
• A first round of experiments has been performed wherein the results are expressed as inhibition percentage, which is calculated as follows, through the following steps: • 1. Fluorescence intensity (FI)/Absorbance 660 nm (A660)=A
This ratio allows considering the infection (GFP virus) to the protein amount. • 2. A′=A−background noise of non-infected plate, • 3. B=Fluorescence intensity (FI)/Absorbance 660 nm (A660) of infected but non treated plates, • 4. C=A′/B, which is then converted as the percentage of infection after treatment, compared to non-treated sample, and subsequently as the infection percentage. For instance, a value of 100 in Table IV here below means that, after treatment, the signal attributed to GFP fluorescence is abolished, which is correlated to the absence of infection. • 5. C′=100−C
This value corresponds to the inhibition's percentage.
The following Table IV encompasses said C′ value for some compounds, as calculated above with a mean of 2 experiments, and corresponding standard deviation.
Some values were originally above 100. In these cases, the value has been lowered to 100. This means that some molecules also have an impact on the viability of the cells. In other words, the A value may be lower than the background noise.
Moreover, for each measure, the test was performed with Ribavirin as control. The value of the inhibition percentage was checked, giving 100%.

[2] = test system: DENV-2 strain 16681; assay: DENV-2 inhibition (cytopathic effect inhibition) using Viral ToxGlo assay in A549 cells; format: cell-based, Dengue 2 virus; settings: Dengue virus, DENV2, 120 h, compounds at 10 μM, MOI 0.5, 5 days p.i., read-out: % DENV-2 Inhibition Mean (n = 3)
Method: Protocol for Screening Antiviral Compounds for DENV-2 Inhibition and Cytotoxicity Using Viral ToxGlo Assay
A549 cells were maintained in Dulbecco's Modified Eagle Medium (DMEM) supplemented with 10% fetal bovine serum, 100 U/ml penicillin and 100 μg/ml streptomycin. For the purposes of the screening assay they were grown to 90% confluency, trypsinized and recovered. The trypsin was neutralised with cell culture media and cells were centrifuged at 150×g for 5 minutes before discarding the supernatant and resuspending cell pellet in assay media (DMEM supplemented with 2% fetal bovine serum and 100 U/ml penicillin and 100 μg/ml streptomycin). The cells were seeded into 96-well white clear-bottomed cell culture plates at a density of 1.0×10^4 cells/well in 50 μl. For the media/background control column assay media only was added. Cell plates were placed in a humid chamber and incubated overnight at 37° C./5% CO2. After overnight incubation cells were checked for confluency and healthy appearance.
Test compounds were prepared at a final concentration of 10 μM in a maximum DMSO concentration of 1% (final assay concentration maximal 0.1% DMSO) and added to the cell plates in volumes of 10 μl. For cell control and virus control wells the test article solvent only was added. As a positive inhibition control, 7-Deaza-2′-C-methyladenosine was added at 100 μM in 3 wells. Virus (DENV-2 strain 16681) or assay media for cytotoxicity test wells and media/cell control wells was added immediately after test articles at an MOI of 0.5, 40 for 96 well plates respectively. Virus suspension was prepared by thawing DENV-2 frozen stocks and diluting to the required concentration of plaque forming units in assay media.
Cell plates were further incubated inside a humid chamber for 5 days p.i at 37° C./5% CO2. After the incubation period cells were observed under the microscope to check for characteristic cytopathic effect in virus control wells and healthy cells in the cell control wells. After plates were adjusted to room temperature 20 μl Viral ToxGlo (Promega) was added to each well of the 96-well cell plates. Plates were incubated at room temperature for 5 minutes before measuring the luminescence on a spectrophotometer (Envision, PerkinElmer).
DENV-2 inhibition was calculated as percentage of cytopathic effect inhibition relative to the virus control and cytotoxicity as percentage of cell survival relative to cell control wells.

Structure (SMILES)	inhibition at 1 µM [1] [%]	inhibition at 10 µM [2] [%]	IC50 [1] [µM]
O=C(NCCC1CCCCC1)c1cccc(Nc2ccc(OCc3ccccn3)cc2)c1 [Compound 38, N-(2-cyclohexylethyl)-3-((4-(pyridin-2-ylmethoxy)phenyl)amino)benzamide]	99	65	
Cc1cc(OCc2ccccn2)ccc1Nc1cccc(C(=O)NCCC2CC2)c1 [Compound 45, N-(2-cyclopropylethyl)-3-((2-methyl-4-(pyridin-2-ylmethoxy)phenyl)amino)benzamide]	99	89	
Cc1cc(OCc2ccccn2)ccc1Nc1cccc(C(=O)NCCC2CCC2)c1 [Compound 46, N-(2-cyclobutylethyl)-3-((2-methyl-4-(pyridin-2-ylmethoxy)phenyl)amino)benzamide]	99	71	
CCCC(C)NC(=O)c1cccc(Nc2ccc(OCc3ccccn3)cc2)c1 (stereo not shown) [Compound 64, N-(pentan-2-yl)-3-((4-(pyridin-2-ylmethoxy)phenyl)amino)benzamide]		93	0.001 to 0.4
Cc1cc(OCc2ccccn2)ccc1Nc1cccc(NC(=O)NCCC(C)C)c1 [Compound 68, 1-isopentyl-3-(3-((2-methyl-4-(pyridin-2-ylmethoxy)phenyl)amino)phenyl)urea]		70	0.001 to 0.4
